According to patent US20240018161A1, “MODULATORS OF CYSTIC FIBROSIS TRANSMEMBRANE CONDUCTANCE REGULATOR” (VERTEX PHARMACEUTICALS INCORPORATED, priority 2020, published 2024):
Where two headings read alike, the source gives them in different places.

Molecular target: CFTR-mediated chloride transport in human intestinal epithelial enteroid cells (Homo sapiens, UniProt P13569)
Assay: Membrane potential dye, Enteroid Assay A
Format: cell-based
Settings: for EC50: read-out: Ent. A EC50
Method: Base medium (ADF+++) consisted of Advanced DMEM/Ham's F12, 2 mM Glutamax, 10 mM HEPES, […] penicillin/streptomycin.
Bath 1 Buffer consisted of 1 mM MgCl2, 160 mM NaCl, 4.5 mM KCl, 10 mM HEPES, 10 mM Glucose, 2 mM CaCl2.
Chloride Free Buffer consisted of 1 mM Magnesium Gluconate, 2 mM Calcium Gluconate, 4.5 mM Potassium Gluconate, 160 mM Sodium Gluconate, 10 mM HEPES, 10 mM Glucose.
Bath1 Dye Solution consisted of Bath 1 Buffer, 0.04% Pluronic F127, 20 μM Methyl Oxonol, 30 μM CaCCinh-A01, 30 μM Chicago Sky Blue.
Chloride Free Dye Solution consisted of Chloride Free Buffer, 0.04% Pluronic F127, 20 μM Methyl Oxonol, 30 μM CaCCinh-A01, 30 μM Chicago Sky Blue.
3. Enteroid Cell Harvesting and Seeding
Cells were recovered in cell recovery solution, collected by centrifugation at 650 rpm for 5 min at 4° C., resuspended in TryPLE and incubated for 5 min at 37° C. Cells were then collected by centrifugation at 650 rpm for 5 min at 4° C. and resuspended in IEMM containing 10 μM ROCK inhibitor (RI).
4. Membrane Potential Dye, Enteroid Assay A
Briefly, cells were washed 5 times in Bath 1 Buffer. Bath 1 Dye Solution was added, and the cells were incubated for 25 min at room temperature. Following dye incubation, cells were washed 3 times in Chloride Free Dye Solution. Chloride transport was initiated by addition of Chloride Free Dye Stimulation Solution and the fluorescence signal was read for 15 min. […] Chloride transport was then expressed as a percentage of the chloride transport following treatment with 3 μM N-[(6-amino-2-pyridyl)sulfonyl]-6-(3-fluoro-5-isobutoxy-phenyl)-2-[(4S)-2,2,4-trimethylpyrrolidin-1-yl]pyridine-3-carboxamide, 3 μM (R)-1-(2,2-difluorobenzo[d][1,3]dioxol-5-yl)-N-(1-(2,3-dihydroxypropyl)-6-fluoro-2-(1-hydroxy-2-methylpropan-2-yl)-1H-indol-5-yl)cyclopropanecarboxamide and 300 nM acute N-[2,4-bis(1,1-dimethylethyl)-5-hydroxyphenyl]-1,4-dihydro-4-oxoquinoline-3-carboxamide triple combination control (% Activity).

[1] = percentage of chloride transport of triple combination control (3 μM N-[(6-amino-2-pyridyl)sulfonyl]-6-(3-fluoro-5-isobutoxy-phenyl)-2-[(4S)-2,2,4-trimethylpyrrolidin-1-yl]pyridine-3-carboxamide based)
[2] = enteroid cells incubated with test compound 18-24 hours, acute 10 μM forskolin and 300 nM N-[2,4-bis(1,1-dimethylethyl)-5-hydroxyphenyl]-1,4-dihydro-4-oxoquinoline-3-carboxamide

CFTR-mediated chloride transport in human intestinal epithelial enteroid cells, sequence (P13569 with tags, fused parts or gaps DEL508-508): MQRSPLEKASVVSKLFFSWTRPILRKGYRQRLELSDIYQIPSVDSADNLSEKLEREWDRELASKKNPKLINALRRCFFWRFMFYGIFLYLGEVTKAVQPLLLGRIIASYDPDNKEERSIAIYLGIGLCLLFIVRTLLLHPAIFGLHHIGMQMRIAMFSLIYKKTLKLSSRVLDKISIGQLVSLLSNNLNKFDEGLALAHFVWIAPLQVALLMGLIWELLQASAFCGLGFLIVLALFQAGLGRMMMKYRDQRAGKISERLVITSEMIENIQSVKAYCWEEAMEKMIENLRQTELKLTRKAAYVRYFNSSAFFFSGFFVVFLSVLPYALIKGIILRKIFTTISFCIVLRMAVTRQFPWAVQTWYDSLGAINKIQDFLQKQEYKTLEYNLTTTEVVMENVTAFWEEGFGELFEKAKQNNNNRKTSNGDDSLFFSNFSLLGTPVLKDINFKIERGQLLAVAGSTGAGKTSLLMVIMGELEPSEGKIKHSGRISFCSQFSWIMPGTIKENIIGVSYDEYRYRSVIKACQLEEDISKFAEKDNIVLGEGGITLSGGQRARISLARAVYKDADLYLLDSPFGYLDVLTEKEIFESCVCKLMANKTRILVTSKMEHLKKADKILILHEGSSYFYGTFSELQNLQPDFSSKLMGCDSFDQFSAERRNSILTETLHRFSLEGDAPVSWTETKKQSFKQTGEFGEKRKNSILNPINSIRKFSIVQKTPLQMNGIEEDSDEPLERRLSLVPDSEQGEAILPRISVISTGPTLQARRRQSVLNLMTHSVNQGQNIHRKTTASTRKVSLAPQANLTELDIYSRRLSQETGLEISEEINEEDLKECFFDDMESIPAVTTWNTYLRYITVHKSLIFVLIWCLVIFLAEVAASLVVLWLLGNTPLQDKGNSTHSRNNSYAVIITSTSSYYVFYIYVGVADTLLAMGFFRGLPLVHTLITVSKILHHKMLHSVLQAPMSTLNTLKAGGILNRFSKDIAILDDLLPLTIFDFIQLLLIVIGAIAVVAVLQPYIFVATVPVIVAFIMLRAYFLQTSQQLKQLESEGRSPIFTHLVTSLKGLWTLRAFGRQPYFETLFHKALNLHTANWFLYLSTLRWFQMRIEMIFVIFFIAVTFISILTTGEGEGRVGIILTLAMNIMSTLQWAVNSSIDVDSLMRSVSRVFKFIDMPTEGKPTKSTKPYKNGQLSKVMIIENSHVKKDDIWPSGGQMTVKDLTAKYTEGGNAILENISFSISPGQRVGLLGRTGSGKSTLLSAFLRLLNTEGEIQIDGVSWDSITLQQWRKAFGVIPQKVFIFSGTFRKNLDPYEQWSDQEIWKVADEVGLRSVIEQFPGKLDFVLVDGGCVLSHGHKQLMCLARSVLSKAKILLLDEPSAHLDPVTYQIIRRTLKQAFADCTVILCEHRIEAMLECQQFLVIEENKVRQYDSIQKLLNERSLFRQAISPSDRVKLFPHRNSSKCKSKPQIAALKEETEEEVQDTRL

## Cc1cccc(C)c1-c1cc2nc(n1)NS(=O)(=O)c1cccc(c1)C(=O)N1Cc3cccnc3[C@H](C1)O2 (single isomer, unassigned) [Compound 196, 12-(2,6-Dimethylphenyl)-15-oxa-8λ^6-thia-1,9,11,18,25-pentaazapentacyclo[14.7.1.13,7.110,14.017,22]hexacosa-3,5,7(26),10(25),11,13,17,19,21-nonaene-2,8,8-trione]
[1]
  Ent. A Max Activity (%): + (+ is <300%)

## Cc1cccc(C)c1-c1cc2nc(n1)NS(=O)(=O)c1cccc(c1)C(=O)N1CC3CCCN(C)C3[C@H](C1)O2 (single isomer, unassigned) [Compound 199, 12-(2,6-dimethylphenyl)-18-methyl-15-oxa-8λ^6-thia-1,9,11,18,25-pentaazapentacyclo[14.7.1.13,7.110,14.017,22]hexacosa-3,5,7(26),10(25),11,13-hexaene-2,8,8-trione]
[2]
  EC50: < 1 µM
[1]
  Ent. A Max Activity (%): +++ (+++ is >60%)

## Cc1cccc(C)c1-c1cc2nc(n1)NS(=O)(=O)c1cccc(c1)C(=O)N1CC3CCCN(C)C3[C@@H](C1)O2 (single isomer, unassigned) [Compound 200, 12-(2,6-dimethylphenyl)-18-methyl-15-oxa-8λ^6-thia-1,9,11,18,25-pentaazapentacyclo[14.7.1.13,7.110,14.017,22]hexacosa-3,5,7(26),10(25),11,13-hexaene-2,8,8-trione]
[1]
  Ent. A Max Activity (%): + (+ is <300%)

## Cc1cccc(C)c1-c1cc2nc(n1)NS(=O)(=O)c1cccc(c1)C(=O)N1CC(O2)C2CCCN(C)C2C1 (single isomer, unassigned) [Compound 201, 12-(2,6-Dimethylphenyl)-21-methyl-15-oxa-8λ^6-thia-1,9,11,21,25-pentaazapentacyclo[14.7.1.13,7.110,14.017,22]hexacosa-3,5,7(26),10(25),11,13-hexaene-2,8,8-trione]
Enteroid Assay A
  Ent. A Max Activity (%): ++ (++ is 30-60%)
  EC50: 3 to 30 µM

## Cc1cccc(C)c1-c1cc2nc(n1)NS(=O)(=O)c1cccc(c1)C(=O)N1CC(O2)C2CCCN(C)C2C1 (single isomer, unassigned) [Compound 202, 12-(2,6-Dimethylphenyl)-21-methyl-15-oxa-8λ^6-thia-1,9,11,21,25-pentaazapentacyclo[14.7.1.13,7.110,14.017,22]hexacosa-3,5,7(26),10(25),11,13-hexaene-2,8,8-trione]
Enteroid Assay A
  Ent. A Max Activity (%): + (+ is <30%)

## Cc1cccc(C)c1-c1cc2nc(n1)NS(=O)(=O)c1cccc(c1)C(=O)N1CC3C(CCCN3C)[C@@H](C1)O2 (single isomer, unassigned) [Compound 203, 12-(2,6-dimethylphenyl)-21-methyl-15-oxa-8λ^6-thia-1,9,11,21,25-pentaazapentacyclo[14.7.1.13,7.110,14.017,22]hexacosa-3,5,7(26),10(25),11,13-hexaene-2,8,8-trione]
Enteroid Assay A
  Ent. A Max Activity (%): ++ (++ is 30-60%)
  EC50: 3 to 30 µM

## Cc1cccc(C)c1-c1cc2nc(n1)NS(=O)(=O)c1cccc(c1)C(=O)N1CC3C(CCCN3C)[C@H](C1)O2 (single isomer, unassigned) [Compound 204, 12-(2,6-dimethylphenyl)-21-methyl-15-oxa-8λ^6-thia-1,9,11,21,25-pentaazapentacyclo[14.7.1.13,7.110,14.017,22]hexacosa-3,5,7(26),10(25),11,13-hexaene-2,8,8-trione]
Enteroid Assay A
  EC50: 1 to 3 µM

## Cc1cccc(C)c1-c1cc2nc(n1)NS(=O)(=O)c1cccc(c1)C(=O)N1Cc3ccccc3C[C@H](C1)O2 (single isomer, unassigned) [Compound 216, 12-(2,6-dimethylphenyl)-15-oxa-8λ^6-thia-1,9,11,26-tetraazapentacyclo[14.8.1.13,7.110,14.018,23]heptacosa-3(27),4,6,10,12,14(26),18,20,22-nonaene-2,8,8-trione]
[2]
  EC50: 1 to 3 µM
[1]
  Ent. A Max Activity (%): +++ (+++ is >60%)
